Assay results published in patent US20040054130A1, “Insulin potentiating peptides” (priority 2000, published 2004).
Square brackets hold non-standard residues; d marks the D form. Ends that are not written are not given here. Cha = N[C@@H](CC1CCCCC1)C(=O)O; Orn = NCCC[C@H](N)C(=O)O; βAla = NCCC(=O)O

Key:
[1] = system: Zucker (fa/fa) rat hemidiaphragm muscle; assay: In vitro glycogen synthesis (glucose incorporation into glycogen) in hemidiaphragm muscle with exogenous insulin; type: cell-based; set-up: key to Activity: insulin-potentiating: improved activity compared to insulin alone; inactive: equal activity compared to insulin alone; insulin antagonist: reduced activity compared to insulin alone; *-**: increasing insulin-potentiating activity; settings: for insulin-potentiating activity on in vitro glycogen synthesis (in words): with 1 mU/ml exogenous insulin
Procedure: In vitro insulin-potentiating effects of the synthetic peptide analogues were assessed by measuring the rates of exogenous glucose incorporation into glycogen in rat hemidiaphragms (Lim et al, 1992). Hemidiaphragms from overnight-fasted Zucker fatty(fa/fa) female rats were dissected, and divided into segments of approximate 35-50 mg each. Tissues from the same rat were used for all groups. The tissue was incubated in 2 ml of Krebs-Ringer bicarbonate (KRB) buffer (pH 7.4) containing [^14C]glucose (5.5 mM, final specific activity 0.05 mCi/mmol) under an atmosphere of 95% 02-5% CO2 at 37° C. for 1.5 hr. After incubation, tissues were removed, washed with cold buffer and blotted. Tissues were digested, the muscle glycogen was precipitated and the ^14C-radioactivity was counted in a Wallac 1410 liquid scintillation counter. The biological activity of peptide analogues was measured as the rate of mmol glucose incorporation into muscle glycogen/g tissue/hr.
The sensitivity of hemidiaphragm muscle tissue to insulin (0.1-100 mU/ml) on glycogen synthesis was first analyzed. The dose response curves for peptide analogues on the insulin-potentiating effect to glycogen synthesis were then measured using cumulative increasing concentrations (10^−3 10 μmol/ml) of peptides in the presence of insulin (1 mU/ml). The biological activity of each peptide analogue was measured as the rate of glucose incorporation into muscle glycogen (μmol/g tissue/hr), and represented by the mean±SEM from eight determinations.
To determine the insulin-potentiating effect of the peptide analogues, the rates of incorporation of glucose into muscle glycogen were measured. The rates of glycogen synthesis (μmol/g tissue/hr) were 0.52±0.05, 0.60±0.04, 1.27±0.06 and 1.52±0.07 inresponse to 0.33, 1, 3.33 and 10 mU/ml insulin respectively, as shown in FIG. 1.
The insulin-potentiating effect of the peptide analogues was then observed by studying their dose response. curves for glucose incorporation into glycogen in the presence of 1 mU/ml exogenous insulin. The effects of peptides 1, 3, 4, 6, 7, 8 and 10 were evident at doses higher than 0.01 μmol/ml, and continued to increase with increasing peptide concentration to 1 μmol/ml, as shown in FIGS. 2A and 2B.
The activity of each analogue was assessed by in vitro measurement of glycogen synthesis in muscle, as described above.

[2] = system: Zucker fatty (fa/fa) rats; assay: Basal blood glucose determination after i.p. peptide; type: in vivo, rat; settings: 10 μmol/kg body weight i.p., over 150 min, vs saline
Procedure: Overnight-fasted Zucker fatty(fa/fa) female rats were anaesthetized with sodium pentobarbitone (60 mg/kg body weight). After 45 min, basal blood glucose samples were taken from the tail vein, followed immediately by intraperitoneal (i.p.) injection of saline (control) or the peptide analogue (test, 10 μmol/kg body weight) in 0.4 ml of saline. Blood samples were taken at 15, 30, 60, 90, 120, 150 minutes after injection, and the blood glucose level in each sample was measured immediately by the glucose oxidase method, using a YSI Model-2300 STAT glucose analyzer (Yellow Spring, Ohio). Six animals for each group were used.
The reduction of basal blood glucose levels in animals by different peptide analogues administered intraperitoneally (i.p.)at a dose of 10 μmol/kg body weight was measured for over 150 min.

[3] = system: normal male Wistar rats; assay: Intravenous insulin tolerance test (IVITT); type: in vivo, rat; settings: 5 μmol/kg i.v.; for insulin-potentiating effect on decreasing blood glucose in IVITT (in words): from 30 min after commencement; for Reduction in Blood Glucose: 0.1 U insulin/kg
Procedure: IVITTs (0.1 U insulin/kg body weight) were performed on overnight-fasted Wistar male rats as previously described (Lim et al, 1992). Blood samples were taken for glucose estimation at 15, 30, 45, 60 min after the commencement of the tests. Six animals in each group were used.
IVITTs were performed on normal male Wistar rats after a single intravenous (i.v.) injection of the hGH peptide analogues at a dose of 5 μmol/kg body weight. The insulin-potentiating effects of peptides 6, 7, 8 and 10 on decreasing blood glucose levels of treated animals became significant since 30 min after the commencement of the test. Bioactivity was retained when the Arg^8 or Phe^10 residue of Asu^11-hGH(6-13) peptide was substituted with Lys or Tyr respectively (1.92±0.17 or 1.62±0.18 vs. 1.65±0.12 mmol/L at 45 min), as shown in Table 3. However, no insulin-potentiating effect was observed when either Arg^8 or Phe^10 was substituted by Gly (0.92±0.08 or 1.08±0.08 mmol/L respectively vs. 1.00±0.10 mmol/L of control at 45 min). Asu^11-hGH(8-13) also elicited this insulin-potentiating effect, but with lower potency.

[4] = Table 5, compared to insulin alone
[5] = Table 6 (corrected), summary of Table 5

In the case of Ala-Gly-Phe-Phe (AGFF-NH2) [Peptide 12], the Activity [1, 4] is reported as “inactive”.

“Arg-Ala-Phe-Phe-NH2 (RAFF-NH2) [Peptide 13]” was tested, and the Activity [1, 4] was “inactive” and the Activity [1, 5] was “inactive”.

“Arg-D-Ala-Phe-Tyr-NH2 (R[dA]FY-NH2; N-terminus assumed; SMILES C[C@@H](NC(=O)[C@@H](N)CCCNC(=N)N)C(=O)N[C@@H](Cc1ccccc1)C(=O)N[C@@H](Cc1ccc(O)cc1)C(N)=O) [Peptide 22]” was tested, and the Activity [1, 5] was “active”.

In the case of “Arg-D-Ala-Phe-Tyr-me-NH2 (R[dA]FY-NH2; also: 'me' (methyl) after Tyr, site not settled) [Peptide 23]”, the Activity [1, 5] is reported as “active”.

For “Arg-D-Ala-Tyr-Phe-NH2 (R[dA]YF-NH2; N-terminus assumed; SMILES C[C@@H](NC(=O)[C@@H](N)CCCNC(=N)N)C(=O)N[C@@H](Cc1ccc(O)cc1)C(=O)N[C@@H](Cc1ccccc1)C(N)=O) [Peptide 24]”, the Activity [1, 5] was “active”.

For “Arg-Gly-Ala-Phe-NH2 (RGAF-NH2) [Peptide 14]”, the Activity [1, 4] was “inactive” and the Activity [1, 5] was “inactive”.

In the case of “Arg-Gly-Phe-Ala-NH2 (RGFA-NH2) [Peptide 15]”, the Activity [1, 4] is reported as “inactive” and the Activity [1, 5] is reported as “inactive”.

In the case of “Arg-Gly-Phe-Cha-NH2 (RGF[Cha]-NH2; N-terminus assumed; SMILES N=C(N)NCCC[C@H](N)C(=O)NCC(=O)N[C@@H](Cc1ccccc1)C(=O)N[C@@H](CC1CCCCC1)C(N)=O) [Peptide 2]”, the Activity [1, 5] is reported as “antagonist”, the “hypoglycaemic effect (reduction of basal blood glucose level)” value ([2]; listed as Arg-Gly-Phe-Cha) is reported as “no hypoglycaemic effect” and the “hypoglycaemic effect (reduction of basal blood glucose level)” value ([2]; listed as peptide 2) is reported as “significant hypoglycaemic effects”.

In the case of “Arg-Gly-Phe-Phe-NH2 (RGFF-NH2) [Peptide 1]”, the Activity [1, 5] is reported as “active”, the “insulin-potentiating activity on in vitro glycogen synthesis (in words)” value (shortened to “insulin-potentiating activity”) [1] is reported as “stimulated glycogen synthesis” and the “hypoglycaemic effect (reduction of basal blood glucose level)” value ([2]; listed as Arg-Gly-Phe-Phe) is reported as “reduced basal blood glucose levels”. The “hypoglycaemic effect (reduction of basal blood glucose level)” value ([2]; listed as peptide 1) was “significant hypoglycaemic effects”.

“Arg-Gly-Phe-Tyr-NH2 (RGFY-NH2) [Peptide 21]” was tested, and the Activity [1, 4] was “inactive” and the Activity [1, 5] was “inactive”.

For “Arg-Gly-Tyr-Phe-NH2 (RGYF-NH2) [Peptide 19]”, the Activity [1, 5] was “active”.

“Arg-Leu-Phe-Asp-Asn-Ala (RLFDNA-NH2) [Peptide 5]” was tested, and the Activity [1, 4] was “inactive”, the “insulin-potentiating activity” value [1] was “abolished” and the “hypoglycaemic effect (reduction of basal blood glucose level)” value [2] was “no hypoglycaemic effect”. The “insulin-potentiating effect on decreasing blood glucose in IVITT (in words)” value ([3]; listed as Asn^11-hGH(8-13)) was “no such effect”, the “insulin-potentiating effect on decreasing blood glucose in IVITT (in words)” value ([3]; listed as linear hGH(8-13)) was “no activity” and the “Reduction in Blood Glucose” value ([3]; 15 min) was 0.90 ± 0.09 mmol/L. For the same substance, the “Reduction in Blood Glucose” value ([3]; 30 min) was 1.01 ± 0.11 mmol/L, the “Reduction in Blood Glucose” value ([3]; 45 min) was 1.07 ± 0.15 mmol/L and the “Reduction in Blood Glucose” value ([3]; 60 min) was 1.06 ± 0.12 mmol/L.

With “Arg-Leu-Phe-Asu-Asn-Ala (RLFDNA-NH2) [Peptide 6]” the “insulin-potentiating activity” value [1] was “diminished insulin-potentiating effect”, the “hypoglycaemic effect (reduction of basal blood glucose level)” value [2] was “significant hypoglycaemic effects” and the “hypoglycaemic effect (reduction of basal blood glucose level)” value ([2]; listed as Asu^11-hGH(8-13) amide) was “diminished insulin-potentiating effect”. The “insulin-potentiating effect on decreasing blood glucose in IVITT (in words)” value [3] was “significant”, the “insulin-potentiating effect on decreasing blood glucose in IVITT (in words)” value ([3]; listed as Asu^11-hGH(8-13)) was “lower potency” and the “Reduction in Blood Glucose” value ([3]; 15 min) was 0.93 ± 0.17 mmol/L. The “Reduction in Blood Glucose” value ([3]; 30 min) was 1.58 ± 0.12 mmol/L, the “Reduction in Blood Glucose” value ([3]; 45 min) was 1.50 ± 0.15 mmol/L and the “Reduction in Blood Glucose” value ([3]; 60 min) was 1.50 ± 0.19 mmol/L.

For “Arg-Leu-Phe-Phe-NH2 (RLFF-NH2) [Peptide 4]”, the Activity [1, 5] was “active”.

In the case of “Arg-β-Ala-Phe-Phe (R[βAla]FF; not fully specified (C-terminus); printed as Arg-β-Ala-Phe-Phe) [Peptide 18]”, the Activity [1, 5] is reported as “active”.

With “Leu-Ser-Arg-Leu-Gly-Asu-Asn-Ala (LSRLGDNA-NH2; not fully specified; printed as Leu-Ser-Arg-Leu-Gly-Asu-Asn-Ala) [Peptide 11]” the Activity [1, 4] was “inactive”, the “Reduction in Blood Glucose” value ([3]; 15 min) was 0.68 ± 0.05 mmol/L and the “Reduction in Blood Glucose” value ([3]; 30 min) was 0.96 ± 0.06 mmol/L. The “Reduction in Blood Glucose” value ([3]; 45 min) was 1.08 ± 0.08 mmol/L and the “Reduction in Blood Glucose” value ([3]; 60 min) was 1.12 ± 0.06 mmol/L.

In the case of “Leu-Ser-Arg-Leu-Tyr-Asu-Asn-Ala (LSRLYDNA-NH2; not fully specified; printed as Leu-Ser-Arg-Leu-Tyr-Asu-Asn-Ala) [Peptide 10]”, the “insulin-potentiating effect on decreasing blood glucose in IVITT (in words)” value [3] is reported as “significant”, the “Reduction in Blood Glucose” value ([3]; 15 min) is reported as 1.03 ± 0.10 mmol/L and the “Reduction in Blood Glucose” value ([3]; 30 min) is reported as 1.52 ± 0.12 mmol/L. The “Reduction in Blood Glucose” value ([3]; 45 min) was 1.62 ± 0.18 mmol/L and the “Reduction in Blood Glucose” value ([3]; 60 min) was 1.60 ± 0.34 mmol/L.

“Leu-Ser-Gly-Leu-Phe-Asu-Asn-Ala (LSGLFDNA-NH2; not fully specified; printed as Leu-Ser-Gly-Leu-Phe-Asu-Asn-Ala) [Peptide 9]” was tested, and the Activity [1, 4] was “inactive”, the “Reduction in Blood Glucose” value ([3]; 15 min) was 0.87 ± 0.12 mmol/L and the “Reduction in Blood Glucose” value ([3]; 30 min) was 0.80 ± 0.14 mmol/L. The “Reduction in Blood Glucose” value ([3]; 45 min) was 0.88 ± 0.15 mmol/L and the “Reduction in Blood Glucose” value ([3]; 60 min) was 0.74 ± 0.16 mmol/L.

In the case of “Leu-Ser-Lys-Leu-Phe-Asu-Asn-Ala (LSKLFDNA-NH2; not fully specified; printed as Leu-Ser-Lys-Leu-Phe-Asu-Asn-Ala) [Peptide 8]”, the “insulin-potentiating activity” value [1] is reported as “active”, the “insulin-potentiating effect on decreasing blood glucose in IVITT (in words)” value [3] is reported as “significant” and the “Reduction in Blood Glucose” value ([3]; 15 min) is reported as 1.08 ± 0.10 mmol/L. For the same substance, the “Reduction in Blood Glucose” value ([3]; 30 min) was 1.35 ± 0.14 mmol/L, the “Reduction in Blood Glucose” value ([3]; 45 min) was 1.92 ± 0.17 mmol/L and the “Reduction in Blood Glucose” value ([3]; 60 min) was 1.78 ± 0.17 mmol/L.

In the case of Lys-Gly-Phe-Phe (KGFF-NH2) [Peptide 16], the Activity [1, 4] is reported as “inactive” and the “insulin-potentiating activity” value [1] is reported as “loss of activity”.

With RG[Cha]F-NH2 [Peptide 20] the Activity [1, 5] was “antagonist”.

[Orn]GFF [Peptide 17] was tested, and the Activity [1, 4] was “inactive” and the “insulin-potentiating activity” value [1] was “loss of activity”.

With “insulin: exogenous insulin tested alone on hemidiaphragm glycogen synthesis (FIG. 1)” the “rate of glycogen synthesis” value ([1]; 0.33 mU/ml insulin alone) was 0.52±0.05 μmol/g tissue/hr, the “rate of glycogen synthesis” value ([1]; 1 mU/ml insulin alone) was 0.60±0.04 μmol/g tissue/hr and the “rate of glycogen synthesis” value ([1]; 3.33 mU/ml insulin alone) was 1.27±0.06 μmol/g tissue/hr. For the same substance, the “rate of glycogen synthesis” value ([1]; 10 mU/ml insulin alone) was 1.52±0.07 μmol/g tissue/hr.
